Key:
ABUTH = experiment: greenhouse post-emergence herbicidal test; assay type: in vivo, Abutilon theophrasti; conditions: post-emergence method, application rate 1000 g/ha, scale from 0 to 100
Text: (§1) The seeds of the test plants were sown separately for each species. For the post-emergence treatment, the test plants were first grown to a height of 3 to 15 cm, depending on the plant habit, and only then treated with the active ingredients which had been suspended or emulsified in water. For this purpose, the test plants were either sown directly and grown in the same containers, or they were first grown separately as seedlings and transplanted into the test containers a few days prior to treatment. Depending on the species, the plants were kept at 10-25° C. or 20-35° C., respectively. The test period extended over 2 to 4 weeks. During this time, the plants were tended, and their response to the individual treatments was evaluated. Evaluation was carried out using a scale from 0 to 100. 100 means no emergence of the plants, or complete destruction of at least the aerial moieties, and 0 means no damage, or normal course of growth. […] The plants used in the greenhouse experiments were of the following species: [table]

ECHCG [1] = experiment: greenhouse post-emergence herbicidal test; assay type: in vivo, Echinocloa crus-galli; conditions: post-emergence method, scale from 0 to 100
Outline: (§2)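 Read-out is a visual 0–100 injury rating, 100 meaning complete destruction of at least aerial parts and 0 meaning normal growth. It was taken over 2–4 weeks after plants 3–15 cm tall were treated with compound suspended or emulsified in water.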

POLCO = experiment: greenhouse post-emergence herbicidal test; assay type: in vivo, Polygonum convolvulus; conditions: post-emergence method, scale from 0 to 100
Text: as §1

ALOMY [2] = experiment: greenhouse pre-emergence herbicidal test; assay type: in vivo, Alopercurus myosuroides; conditions: pre-emergence method, application rate 500 g/ha, scale from 0 to 100
Text: The seeds of the test plants were sown separately for each species. For the pre-emergence treatment, the active ingredients, which had been suspended or emulsified in water, were applied directly after sowing by means of finely distributing nozzles. The containers were irrigated gently to promote germination and growth and subsequently covered with transparent plastic hoods until the plants had rooted. This cover caused uniform germination of the test plants, unless this had been impaired by the active ingredients. Depending on the species, the plants were kept at 10-25° C. or 20-35° C., respectively. The test period extended over 2 to 4 weeks. During this time, the plants were tended, and their response to the individual treatments was evaluated. Evaluation was carried out using a scale from 0 to 100. 100 means no emergence of the plants, or complete destruction of at least the aerial moieties, and 0 means no damage, or normal course of growth. […] The plants used in the greenhouse experiments were of the following species: [table]

APESV = experiment: greenhouse pre-emergence herbicidal test; assay type: in vivo, Apera spica-venti; conditions: pre-emergence method, application rate 500 g/ha, scale from 0 to 100
Outline: (§3)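 Rated on a 0 (normal growth) to 100 (no emergence/total aerial kill) scale over a 2-4 week test period. Aqueous suspensions or emulsions applied by fine nozzles right after sowing, then plants held under hoods at 10-25 °C or 20-35 °C depending on species.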

ECHCG [3] = experiment: greenhouse pre-emergence herbicidal test; assay type: in vivo, Echinocloa crus-galli; conditions: pre-emergence method, application rate 500 g/ha, scale from 0 to 100
Outline: as §3

ALOMY [4] = experiment: greenhouse post-emergence herbicidal test; assay type: in vivo, Alopercurus myosuroides; conditions: post-emergence method, application rate 500 g/ha, scale from 0 to 100
Outline: as §2

AMARE = experiment: greenhouse post-emergence herbicidal test; assay type: in vivo, Amaranthus retroflexus; conditions: post-emergence method, application rate 500 g/ha, scale from 0 to 100
Outline: as §2

Compound | herbicidal activity against ABUTH (ABUTH) | herbicidal activity against ECHCG (ECHCG [1]; application rate 1000 g/ha) | herbicidal activity against POLCO (POLCO; application rate 1000 g/ha) | herbicidal activity against ALOMY (ALOMY [2]) | herbicidal activity against APESV (APESV) | herbicidal activity against ECHCG (ECHCG [3]) | herbicidal activity against ALOMY (ALOMY [4]) | herbicidal activity against ECHCG (ECHCG [1]; application rate 500 g/ha) | herbicidal activity against AMARE (AMARE) | herbicidal activity against POLCO (POLCO; application rate 500 g/ha)
CSc1ncc(-c2ccc(F)cc2C)c(C(=O)O)n1 [example 94] | good (A good herbicidal activity is given at values of at least 70) | very good (a very good herbicidal activity is given at values of at least 85) | very good (a very good herbicidal activity is given at values of at least 85) | – | – | – | – | – | – | –
O=C(O)c1nc(C2CC2)ncc1-c1ccccc1F [example 132] | – | – | – | very good (a very good herbicidal activity is given at values of at least 85) | very good (a very good herbicidal activity is given at values of at least 85) | very good (a very good herbicidal activity is given at values of at least 85) | very good (a very good herbicidal activity is given at values of at least 85) | very good (a very good herbicidal activity is given at values of at least 85) | – | –
O=C(O)c1nc(C2CC2)ncc1-c1cc(F)ccc1Cl [example 142] | – | – | – | very good (a very good herbicidal activity is given at values of at least 85) | very good (a very good herbicidal activity is given at values of at least 85) | very good (a very good herbicidal activity is given at values of at least 85) | very good (a very good herbicidal activity is given at values of at least 85) | very good (a very good herbicidal activity is given at values of at least 85) | – | –
O=C(O)c1nc(C2CC2)ncc1-c1ccc(F)cc1Cl [example 146] | – | – | – | very good (a very good herbicidal activity is given at values of at least 85) | very good (a very good herbicidal activity is given at values of at least 85) | very good (a very good herbicidal activity is given at values of at least 85) | very good (a very good herbicidal activity is given at values of at least 85) | – | – | –
O=C(O)c1nc(C2CC2)ncc1-c1ccccc1Br [example 152] | – | – | – | good (A good herbicidal activity is given at values of at least 70) | very good (a very good herbicidal activity is given at values of at least 85) | very good (a very good herbicidal activity is given at values of at least 85) | – | – | good (A good herbicidal activity is given at values of at least 70) | –
Cc1cccc(C)c1-c1cnc(C2CC2)nc1C(=O)O [example 162] | – | – | – | very good (a very good herbicidal activity is given at values of at least 85) | very good (a very good herbicidal activity is given at values of at least 85) | very good (a very good herbicidal activity is given at values of at least 85) | very good (a very good herbicidal activity is given at values of at least 85) | very good (a very good herbicidal activity is given at values of at least 85) | – | –
Cc1ccc(Cl)cc1-c1cnc(C2CC2)nc1C(=O)O [example 164] | – | – | – | very good (a very good herbicidal activity is given at values of at least 85) | very good (a very good herbicidal activity is given at values of at least 85) | very good (a very good herbicidal activity is given at values of at least 85) | – | very good (a very good herbicidal activity is given at values of at least 85) | – | very good (a very good herbicidal activity is given at values of at least 85)
COC(=O)c1nc(C2CC2)ncc1-c1ccccc1F [example 190] | – | – | – | very good (a very good herbicidal activity is given at values of at least 85) | very good (a very good herbicidal activity is given at values of at least 85) | very good (a very good herbicidal activity is given at values of at least 85) | – | – | – | good (A good herbicidal activity is given at values of at least 70)
COC(=O)c1nc(C2CC2)ncc1-c1cc(F)ccc1Cl [example 203] | – | – | – | very good (a very good herbicidal activity is given at values of at least 85) | very good (a very good herbicidal activity is given at values of at least 85) | very good (a very good herbicidal activity is given at values of at least 85) | good (A good herbicidal activity is given at values of at least 70) | very good (a very good herbicidal activity is given at values of at least 85) | – | –
COC(=O)c1nc(C2CC2)ncc1-c1cc(C)ccc1Cl [example 205] | – | – | – | good (A good herbicidal activity is given at values of at least 70) | very good (a very good herbicidal activity is given at values of at least 85) | very good (a very good herbicidal activity is given at values of at least 85) | good (A good herbicidal activity is given at values of at least 70) | very good (a very good herbicidal activity is given at values of at least 85) | – | –
COC(=O)c1nc(C2CC2)ncc1-c1ccc(F)cc1Cl [example 207] | – | – | – | very good (a very good herbicidal activity is given at values of at least 85) | very good (a very good herbicidal activity is given at values of at least 85) | very good (a very good herbicidal activity is given at values of at least 85) | good (A good herbicidal activity is given at values of at least 70) | – | – | –
COC(=O)c1nc(C2CC2)ncc1-c1ccccc1Br [example 213] | – | – | – | very good (a very good herbicidal activity is given at values of at least 85) | very good (a very good herbicidal activity is given at values of at least 85) | very good (a very good herbicidal activity is given at values of at least 85) | good (A good herbicidal activity is given at values of at least 70) | good (A good herbicidal activity is given at values of at least 70) | – | –
COC(=O)c1nc(C2CC2)ncc1-c1cc(Cl)ccc1C [example 227] | – | – | – | very good (a very good herbicidal activity is given at values of at least 85) | very good (a very good herbicidal activity is given at values of at least 85) | very good (a very good herbicidal activity is given at values of at least 85) | very good (a very good herbicidal activity is given at values of at least 85) | very good (a very good herbicidal activity is given at values of at least 85) | – | –
COC(=O)c1nc(C2CC2)ncc1-c1cc(C)c(F)cc1C [example 230] | – | – | – | good (A good herbicidal activity is given at values of at least 70) | very good (a very good herbicidal activity is given at values of at least 85) | very good (a very good herbicidal activity is given at values of at least 85) | good (A good herbicidal activity is given at values of at least 70) | very good (a very good herbicidal activity is given at values of at least 85) | – | –

— patent US10420341B2, “Herbicidal phenylpyrimidines” (BASF SE, priority 2015, dated 2019)
